From ChEMBL document CHEMBL3286158, “Novel pyridyl- or isoquinolinyl-substituted indolines and indoles as potent and selective aldosterone synthase inhibitors” (J Med Chem, 2014)

Experiments:
[1] = target: T1, Cytochrome P450 11B2, mitochondrial (Homo sapiens, UniProt P19099)
T1 sequence (P19099 whole entry): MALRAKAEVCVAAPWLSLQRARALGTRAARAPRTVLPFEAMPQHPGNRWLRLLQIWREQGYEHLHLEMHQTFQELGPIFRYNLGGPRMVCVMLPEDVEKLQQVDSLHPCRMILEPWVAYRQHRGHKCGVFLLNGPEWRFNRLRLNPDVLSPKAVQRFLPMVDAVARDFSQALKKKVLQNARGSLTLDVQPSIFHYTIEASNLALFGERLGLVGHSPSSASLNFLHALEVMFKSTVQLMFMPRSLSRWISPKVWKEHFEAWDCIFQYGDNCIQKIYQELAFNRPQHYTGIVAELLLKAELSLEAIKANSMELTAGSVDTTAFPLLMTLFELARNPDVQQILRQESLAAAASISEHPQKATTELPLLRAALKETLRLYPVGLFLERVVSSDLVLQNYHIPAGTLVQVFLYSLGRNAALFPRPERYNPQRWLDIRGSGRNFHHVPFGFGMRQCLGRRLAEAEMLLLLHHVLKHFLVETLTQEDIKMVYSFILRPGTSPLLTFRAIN

[2] = target: T2, Cytochrome P450 11B1, mitochondrial (Homo sapiens, UniProt P15538)
T2 sequence (P15538 whole entry): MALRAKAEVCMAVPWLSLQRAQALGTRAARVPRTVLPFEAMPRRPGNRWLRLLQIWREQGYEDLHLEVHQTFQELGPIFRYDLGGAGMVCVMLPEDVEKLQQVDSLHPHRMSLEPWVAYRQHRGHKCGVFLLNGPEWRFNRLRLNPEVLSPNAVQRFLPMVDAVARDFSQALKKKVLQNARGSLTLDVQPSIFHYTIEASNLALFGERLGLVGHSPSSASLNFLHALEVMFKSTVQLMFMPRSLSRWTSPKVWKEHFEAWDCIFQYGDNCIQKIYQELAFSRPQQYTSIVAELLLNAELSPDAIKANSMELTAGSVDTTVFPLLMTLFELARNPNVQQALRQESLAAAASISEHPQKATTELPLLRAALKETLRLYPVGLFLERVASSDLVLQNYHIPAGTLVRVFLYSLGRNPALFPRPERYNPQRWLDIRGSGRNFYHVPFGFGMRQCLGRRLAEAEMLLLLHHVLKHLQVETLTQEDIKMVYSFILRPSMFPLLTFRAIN

[3] = target: T3, CYP11B1 (Homo sapiens, UniProt P15538); experiment: Inhibition of human CYP11B1 expressed in hamster V79MZh cells using deoxycorticosterone as substrate at 500 nM; assay type: cell-based; conditions: hamster V79MZh cells expressing human CYP11B1, probe deoxycorticosterone
T3 sequence (P15538 whole entry): T2 sequence (P15538 whole entry)

[4] = target: T1, Cytochrome P450 11B2, mitochondrial; experiment: Inhibition of human CYP11B2 expressed in hamster V79MZh cells using deoxycorticosterone as substrate at 500 nM; assay type: cell-based
[5] = target: T4, Cytochrome P450 1A2 (Homo sapiens, UniProt P05177); experiment: Inhibition of CYP1A2 using recombinant human CYP enzyme at a single time point by LC-MS/MS analysis
T4 sequence (P05177 whole entry): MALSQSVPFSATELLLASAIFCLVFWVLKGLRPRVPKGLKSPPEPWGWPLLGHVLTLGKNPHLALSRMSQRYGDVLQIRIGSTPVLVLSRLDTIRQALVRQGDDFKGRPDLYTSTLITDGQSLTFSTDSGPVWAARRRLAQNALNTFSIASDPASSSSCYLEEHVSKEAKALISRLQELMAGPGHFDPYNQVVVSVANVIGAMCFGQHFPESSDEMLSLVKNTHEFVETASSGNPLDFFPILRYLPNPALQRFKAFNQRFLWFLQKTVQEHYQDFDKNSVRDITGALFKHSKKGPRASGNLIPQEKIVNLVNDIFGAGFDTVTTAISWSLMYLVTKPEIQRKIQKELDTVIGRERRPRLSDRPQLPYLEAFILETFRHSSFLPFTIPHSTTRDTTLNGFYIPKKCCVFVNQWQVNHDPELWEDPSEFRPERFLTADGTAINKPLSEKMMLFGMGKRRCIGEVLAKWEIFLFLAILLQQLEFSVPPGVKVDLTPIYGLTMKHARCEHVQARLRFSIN

[6] = Intrinsic clearance in human liver microsomes at 1 uM by LC-MS/MS analysis; conditions: read-out: CLH
[7] = target: Cytochrome P450 2C19 (Homo sapiens, UniProt P33261); experiment: Inhibition of CYP2C19 using recombinant human CYP enzyme at a single time point by LC-MS/MS analysis
[8] = Half life in human liver microsomes at 1 uM by LC-MS/MS analysis
[9] = target: T5, CYP17 (Homo sapiens, UniProt P05093); experiment: Inhibition of human CYP17 expressed in Escherichia coli co-expressing NADPH-P450 reductase at 2 uM using progesterone as substrate; conditions: probe progesterone
T5 sequence (P05093 whole entry): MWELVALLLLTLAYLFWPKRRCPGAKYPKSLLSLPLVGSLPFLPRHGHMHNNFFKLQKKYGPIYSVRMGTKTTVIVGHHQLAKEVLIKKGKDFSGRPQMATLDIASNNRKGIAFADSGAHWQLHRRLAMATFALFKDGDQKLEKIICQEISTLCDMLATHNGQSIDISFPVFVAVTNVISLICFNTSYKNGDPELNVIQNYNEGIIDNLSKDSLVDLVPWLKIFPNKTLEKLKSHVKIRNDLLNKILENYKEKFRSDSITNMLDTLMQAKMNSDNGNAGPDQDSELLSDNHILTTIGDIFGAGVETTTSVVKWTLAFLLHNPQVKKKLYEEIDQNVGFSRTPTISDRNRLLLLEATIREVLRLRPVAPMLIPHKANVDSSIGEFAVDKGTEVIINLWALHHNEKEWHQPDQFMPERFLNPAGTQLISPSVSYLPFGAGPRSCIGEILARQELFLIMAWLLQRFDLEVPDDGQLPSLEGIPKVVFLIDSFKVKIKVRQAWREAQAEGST

[10] = target: Cytochrome P450 3A4 (Homo sapiens, UniProt P08684); experiment: Inhibition of CYP3A4 using recombinant human CYP enzyme at a single time point by LC-MS/MS analysis
[11] = target: T6, CYP19 (Homo sapiens, UniProt P11511); experiment: Inhibition of CYP19 in human placental microsomes at 500 nM using [1beta-3H]androstenedione as substrate; design: species or system Placenta; conditions: probe [1beta-3H]androstenedione
T6 sequence (P11511 whole entry): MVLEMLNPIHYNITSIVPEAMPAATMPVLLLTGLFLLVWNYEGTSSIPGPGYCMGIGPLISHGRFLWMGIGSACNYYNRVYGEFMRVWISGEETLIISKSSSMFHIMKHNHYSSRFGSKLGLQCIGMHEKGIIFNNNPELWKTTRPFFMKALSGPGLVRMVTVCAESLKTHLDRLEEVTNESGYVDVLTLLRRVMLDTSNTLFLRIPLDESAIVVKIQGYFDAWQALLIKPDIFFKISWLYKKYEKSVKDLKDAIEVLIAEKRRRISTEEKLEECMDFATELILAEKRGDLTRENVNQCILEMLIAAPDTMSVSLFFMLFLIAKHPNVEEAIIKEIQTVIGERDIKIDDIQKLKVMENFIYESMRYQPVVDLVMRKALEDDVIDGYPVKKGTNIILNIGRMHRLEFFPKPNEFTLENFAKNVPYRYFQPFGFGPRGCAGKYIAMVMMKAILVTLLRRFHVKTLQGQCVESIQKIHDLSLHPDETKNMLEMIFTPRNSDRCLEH

[12] = target: Cytochrome P450 2D6 (Homo sapiens, UniProt P10635); experiment: Inhibition of CYP2D6 using recombinant human CYP enzyme at a single time point by LC-MS/MS analysis
[13] = target: Cytochrome P450 2C9 (Homo sapiens, UniProt P11712); experiment: Inhibition of CYP2C9 using recombinant human CYP enzyme at a single time point by LC-MS/MS analysis
Cytochrome P450 2C9, sequence (P11712 whole entry): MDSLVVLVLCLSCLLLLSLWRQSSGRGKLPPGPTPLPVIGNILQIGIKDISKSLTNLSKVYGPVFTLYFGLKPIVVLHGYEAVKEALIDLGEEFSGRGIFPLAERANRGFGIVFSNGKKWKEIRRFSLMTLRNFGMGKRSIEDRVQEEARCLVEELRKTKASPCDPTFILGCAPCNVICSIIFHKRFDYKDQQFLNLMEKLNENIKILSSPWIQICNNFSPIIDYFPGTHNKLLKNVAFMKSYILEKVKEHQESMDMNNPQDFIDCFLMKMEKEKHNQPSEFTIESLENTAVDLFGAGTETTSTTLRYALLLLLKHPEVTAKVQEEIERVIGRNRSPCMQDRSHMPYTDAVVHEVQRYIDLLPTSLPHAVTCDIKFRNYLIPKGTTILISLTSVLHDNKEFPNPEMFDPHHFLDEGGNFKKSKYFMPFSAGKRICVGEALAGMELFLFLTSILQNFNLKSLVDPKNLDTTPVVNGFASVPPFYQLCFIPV

Cytochrome P450 3A4, sequence (P08684 whole entry): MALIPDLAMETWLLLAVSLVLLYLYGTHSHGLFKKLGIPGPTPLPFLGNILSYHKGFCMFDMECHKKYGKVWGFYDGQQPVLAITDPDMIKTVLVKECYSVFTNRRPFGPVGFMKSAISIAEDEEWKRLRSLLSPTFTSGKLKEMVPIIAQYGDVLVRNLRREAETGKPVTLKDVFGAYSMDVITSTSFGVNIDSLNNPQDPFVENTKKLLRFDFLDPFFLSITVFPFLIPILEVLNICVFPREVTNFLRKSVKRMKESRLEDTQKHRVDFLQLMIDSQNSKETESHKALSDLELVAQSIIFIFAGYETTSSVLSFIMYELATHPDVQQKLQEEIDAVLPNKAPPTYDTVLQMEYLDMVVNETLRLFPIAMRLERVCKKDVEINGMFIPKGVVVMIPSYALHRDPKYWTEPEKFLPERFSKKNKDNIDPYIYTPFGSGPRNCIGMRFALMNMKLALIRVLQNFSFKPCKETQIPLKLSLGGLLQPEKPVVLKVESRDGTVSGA
Cytochrome P450 2C19, sequence (P33261 whole entry): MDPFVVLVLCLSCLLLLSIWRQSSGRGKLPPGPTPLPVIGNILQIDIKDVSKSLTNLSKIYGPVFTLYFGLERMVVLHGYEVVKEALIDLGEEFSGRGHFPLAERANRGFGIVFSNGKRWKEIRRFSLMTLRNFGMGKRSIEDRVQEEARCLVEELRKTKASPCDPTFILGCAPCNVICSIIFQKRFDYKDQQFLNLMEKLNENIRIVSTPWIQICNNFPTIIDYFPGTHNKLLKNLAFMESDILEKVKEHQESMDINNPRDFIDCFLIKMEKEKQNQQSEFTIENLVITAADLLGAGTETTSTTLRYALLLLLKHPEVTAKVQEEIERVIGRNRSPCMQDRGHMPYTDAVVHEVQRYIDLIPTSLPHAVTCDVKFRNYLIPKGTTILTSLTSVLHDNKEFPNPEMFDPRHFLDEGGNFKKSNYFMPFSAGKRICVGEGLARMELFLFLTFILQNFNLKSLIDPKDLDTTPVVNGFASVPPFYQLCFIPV
Cytochrome P450 2D6, sequence (P10635 whole entry): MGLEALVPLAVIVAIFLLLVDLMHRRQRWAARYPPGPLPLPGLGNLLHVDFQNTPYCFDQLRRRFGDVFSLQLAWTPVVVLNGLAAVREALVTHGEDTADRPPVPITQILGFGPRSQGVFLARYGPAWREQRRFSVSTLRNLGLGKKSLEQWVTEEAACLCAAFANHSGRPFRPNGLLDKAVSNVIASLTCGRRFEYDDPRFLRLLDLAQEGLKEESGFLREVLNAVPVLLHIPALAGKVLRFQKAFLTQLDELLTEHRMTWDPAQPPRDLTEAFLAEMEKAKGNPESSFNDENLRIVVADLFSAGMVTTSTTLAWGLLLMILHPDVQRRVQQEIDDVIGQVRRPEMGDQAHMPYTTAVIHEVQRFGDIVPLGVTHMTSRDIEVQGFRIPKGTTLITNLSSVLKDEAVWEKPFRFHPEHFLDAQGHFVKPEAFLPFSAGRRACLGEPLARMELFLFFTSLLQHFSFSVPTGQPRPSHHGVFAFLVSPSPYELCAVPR

| SMILES | IC50 [1] | IC50 [2] | inhibition [3] | inhibition [4] | IC50 [5] | microsomal CLint [6] | IC50 [7] | half-life [8] | inhibition at 2 µM [9] | IC50 [10] | inhibition at 0.5 µM [11] | IC50 [12] | IC50 [13] |
| --- | --- | --- | --- | --- | --- | --- | --- | --- | --- | --- | --- | --- | --- |
| O=C(CCCl)N1CCc2cc(-c3cccnc3)ccc21 | > 5 µM | > 5 µM | 6% | 7% | – | – | – | – | – | – | – | – | – |
| COc1cncc(-c2ccc3c(c2)CCN3C(C)=O)c1 | – | – | 48% | 100% | – | – | – | – | < 7% | – | < 7% | – | – |
| O=C1CCc2cc(-c3cccnc3)cc3c2N1CC3 | – | – | – | – | – | – | – | 9 min | – | – | – | – | – |
| CC(=O)n1ccc2cc(-c3cccnc3)ccc21 | – | – | 25% | 98% | – | – | – | – | < 7% | – | < 7% | – | – |
| CC(=O)N1CCc2cc(-c3cncc(F)c3)ccc21 | 0.061 µM | 6.81 µM | 11% | 93% | – | – | – | – | < 7% | – | < 7% | – | – |
| COc1ccc(C(=O)N2CCc3cc(-c4cccnc4)ccc32)cc1 | – | > 5 µM | 1.6% | 26% | – | – | – | – | – | – | – | – | – |

Second part, the molecule after the results:

| IC50 [1] | IC50 [2] | inhibition [3] | inhibition [4] | IC50 [5] | microsomal CLint [6] | IC50 [7] | half-life [8] | inhibition at 2 µM [9] | IC50 [10] | inhibition at 0.5 µM [11] | IC50 [12] | IC50 [13] | SMILES |
| --- | --- | --- | --- | --- | --- | --- | --- | --- | --- | --- | --- | --- | --- |
| > 5 µM | 1.52 µM | 26% | 2.2% | – | – | – | – | – | – | – | – | – | O=C(Cc1ccccc1)N1CCc2cc(-c3cccnc3)ccc21 |
| – | – | 70% | 100% | > 50 µM | 81 µL/min/mg | > 50 µM | 17 min | < 7% | > 50 µM | < 7% | > 50 µM | > 50 µM | CC(=O)N1CCc2cc(-c3cnccc3C)ccc21 |
| 0.152 µM | 6.09 µM | 11% | 90% | – | – | – | – | < 7% | – | < 7% | – | – | CC(C)C(=O)N1CCc2cc(-c3cncc4ccccc34)ccc21 |
| 0.03 µM | 3.72 µM | 29% | 98% | – | – | – | – | < 7% | – | < 7% | – | – | O=C(C1CC1)N1CCc2cc(-c3cncc4ccccc34)ccc21 |
| – | – | 0.8% | 66% | – | – | – | – | < 7% | – | < 7% | – | – | CCC(=O)N1CCc2cc(-c3cccnc3)ccc21 |
| – | – | 39% | 100% | > 50 µM | 91 µL/min/mg | > 50 µM | 15 min | < 7% | > 50 µM | < 7% | > 50 µM | > 50 µM | CCC(=O)N1CCc2cc(-c3cncc4ccccc34)ccc21 |
